Consider 38 compounds from patent US20250059220A1, “SUBSTITUTED BENZOTHIOPHENE DERIVATIVES AND METHODS OF USE THEREOF” (Merck Sharp & Dohme LLC, priority 2021, published 2025).

The target in assay [1] is human PTPN2 (1-387) (Homo sapiens (Human), UniProt P17706). Description: Human PTPN2 Biochemical Assay. Conditions: DiFMUP substrate. In short, it runs like this:
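Fluorogenic DiFMUP hydrolysis (1 h, room temperature, read ex 360/em 460 nm) after 30 min compound preincubation with PTPN2 residues 1-387, in 50 mM Tris pH 7.4, 150 mM NaCl, 0.01% Tween20, 0.5 mM DTT. Effects scaled between buffer and enzyme controls, 4-parameter fit gives EC50.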

In assay [2] the target is human PTPN1 (1-435) (Homo sapiens (Human), UniProt P18031). Description: Human PTPN1 Biochemical Assay. Conditions: DiFMUP substrate, read-out: PTP1B IC50. The method, boiled down:
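Read-out is DiFMUP hydrolysis fluorescence (360 nm excitation, 460 nm emission) after 1 h at room temperature, following 30 min enzyme–compound preincubation.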

pIC50: −log10 of the molar value.

Sequence of human PTPN1 (1-435) (P18031 whole entry): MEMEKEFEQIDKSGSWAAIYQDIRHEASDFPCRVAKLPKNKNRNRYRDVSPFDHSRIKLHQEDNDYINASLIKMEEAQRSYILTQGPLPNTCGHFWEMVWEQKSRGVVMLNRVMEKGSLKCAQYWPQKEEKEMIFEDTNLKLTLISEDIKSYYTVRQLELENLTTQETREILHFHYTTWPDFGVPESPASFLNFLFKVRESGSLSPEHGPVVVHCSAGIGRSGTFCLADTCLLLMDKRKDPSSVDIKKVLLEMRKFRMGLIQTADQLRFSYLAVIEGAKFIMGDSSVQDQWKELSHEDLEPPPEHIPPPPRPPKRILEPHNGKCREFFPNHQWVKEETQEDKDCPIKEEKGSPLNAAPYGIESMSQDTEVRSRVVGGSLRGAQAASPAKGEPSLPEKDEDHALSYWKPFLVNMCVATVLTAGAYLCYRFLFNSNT
Sequence of human PTPN2 (1-387) (P17706 other isoform, or with tags, fused parts or gaps): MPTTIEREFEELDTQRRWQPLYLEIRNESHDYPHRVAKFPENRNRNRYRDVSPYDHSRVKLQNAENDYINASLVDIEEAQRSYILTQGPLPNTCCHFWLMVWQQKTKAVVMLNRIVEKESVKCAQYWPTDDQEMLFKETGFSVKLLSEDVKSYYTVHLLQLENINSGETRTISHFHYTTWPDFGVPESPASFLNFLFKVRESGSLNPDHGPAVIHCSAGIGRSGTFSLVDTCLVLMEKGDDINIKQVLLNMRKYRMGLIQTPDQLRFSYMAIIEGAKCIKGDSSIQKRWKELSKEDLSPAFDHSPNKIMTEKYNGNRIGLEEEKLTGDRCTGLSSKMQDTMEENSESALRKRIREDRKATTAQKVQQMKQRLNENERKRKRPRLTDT

`Cc1c(NC(=O)c2ccc3sc(C(F)(F)P(=O)(O)O)c(Br)c3c2)cccc1C(=O)N1CCCC1` [Compound 106]: the pIC50 is 5.05 in assay [1] and 5.16 in assay [2].
For the compound `NC(=O)c1cc(OCc2ccc(-c3ccccc3)cc2)c2sc(C(F)(F)P(=O)(O)O)c(Br)c2c1` [Compound 346], the pIC50 in assay [1] is 8.60; in assay [2], 7.79.
As for `O=C(NC(c1ccc(F)cc1)C(F)F)c1ccc2sc(C(F)(F)P(=O)(O)O)c(Br)c2c1` (stereo not shown) [Compound 117], the results for the pIC50 in assay [1] and in assay [2] were 5.56 and 5.67, respectively.
Turning to `O=C(NCCc1nc(-c2ccccc2)cs1)c1ccc2sc(C(F)(F)P(=O)(O)O)c(Br)c2c1` [Compound 82], the figures for the pIC50 in assay [1] and in assay [2] were 5.73 and 5.86, respectively.
In the same order, the values of `N#Cc1c(C(F)(F)P(=O)(O)O)sc2c(OCCCC(F)(F)F)cc(C(N)=O)cc12` [Compound 424] are 8.17 and 7.71.
With `C[Si](C)(C)CCc1cc(C(N)=O)cc2c(Br)c(C(F)(F)P(=O)(O)O)sc12` [Compound 314], the pIC50 in assay [1] was 7.28; in assay [2], 7.32.
For `CC12CC(COc3cc(C(N)=O)cc4c(Br)c(C(F)(F)P(=O)(O)O)sc34)(C1)C2` [Compound 283], the pIC50 is 7.30 in assay [1] and 7.55 in assay [2].
On to `Cn1cncc1CNC(=O)c1ccc2sc(C(F)(F)P(=O)(O)O)c(Br)c2c1` [Compound 141], for which the figures for the pIC50 in assay [1] and in assay [2] were 5.43 and 5.64, respectively.
For `O=C(NCC1CNC1)c1ccc2sc(C(F)(F)P(=O)(O)O)c(Br)c2c1` [Compound 126], the values for the pIC50 in assay [1] and in assay [2] were 5.21 and 5.28, respectively.
As to `O=C1NC[C@@H](CNC(=O)c2ccc3sc(C(F)(F)P(=O)(O)O)c(Br)c3c2)N1` [Compound 131], the pIC50 in assay [1] and in assay [2] was 5.38 each time.
On to `O=C(NC1(c2cccnc2)CC1)c1ccc2sc(C(F)(F)P(=O)(O)O)c(Br)c2c1` [Compound 180], for which the pIC50 is 5.18 in assay [1] and 4.86 in assay [2].
The corresponding values for `NC(=O)c1cc(OCc2ccc(F)c(C(F)(F)F)c2)c2sc(C(F)(F)P(=O)(O)O)c(Br)c2c1` [Compound 351] are 6.99 and 6.76.
As for `CN(C)C(=O)c1cc(OCCCC(F)(F)F)c2sc(C(F)(F)P(=O)(O)O)c(Br)c2c1` [Compound 204], the pIC50 was 5.90 in assay [1] and 5.84 in assay [2].
As for `O=C(NC1CC1(F)F)c1ccc2sc(C(F)(F)P(=O)(O)O)c(Br)c2c1` (stereo not shown) [Compound 39], the pIC50 in assay [1] was 5.52; in assay [2], 5.64.
As for `O=C(NC1(c2cccc(F)c2)CCCC1)c1ccc2sc(C(F)(F)P(=O)(O)O)c(Br)c2c1` [Compound 115], the pIC50 in assay [1] is 5.58; in assay [2] it was 5.44.
Regarding `NC(=O)c1cc(OCc2ccc(-c3cccnc3)cc2)c2sc(C(F)(F)P(=O)(O)O)c(Br)c2c1` [Compound 401], the values for the pIC50 in assay [1] and in assay [2] were 8.36 and 7.44, respectively.
Consider `O=C(NCc1cccnn1)c1cc(OCCCc2ccncc2)c2sc(C(F)(F)P(=O)(O)O)c(Br)c2c1` [Compound 267], for which the negative logarithm of the IC50 (pIC50) in assay [1] is 7.91; in assay [2], 7.59.
In the case of `O=C(Nc1cccnc1Oc1ccccc1)c1ccc2sc(C(F)(F)P(=O)(O)O)c(Br)c2c1` [Compound 23], the negative logarithm of the IC50 (pIC50) in assay [1] is 5.03; in assay [2], 5.14.
`O=C1NC[C@H](CNC(=O)c2ccc3sc(C(F)(F)P(=O)(O)O)c(Br)c3c2)N1` [Compound 132]: the results for the pIC50 in assay [1] and in assay [2] were 5.28 and 5.33, respectively.
On to `O=C(NCc1cccnn1)c1cc(OCCCC2CC2)c2sc(C(F)(F)P(=O)(O)O)c(Br)c2c1` [Compound 236], for which the pIC50 in assay [1] is 7.87; in assay [2], 7.82.
As to `O=P(O)(O)C(F)(F)c1sc2ccc(-c3cnn[nH]3)cc2c1Br` [Compound 229, ((3-bromo-5-(1H-1,2,3-triazol-5-yl)benzo[b]thiophen-2-yl)difluoromethyl)phosphonic acid], the pIC50 in assay [1] was 7.06; in assay [2] it was 6.27.
Consider `CNC(=O)c1cc(OCCCS(N)(=O)=O)c2sc(C(F)(F)P(=O)(O)O)c(C#N)c2c1` [Compound 427], for which the pIC50 in assay [1] was 8.44; in assay [2] it was 8.27.
Consider `CS(=O)(=O)CCCOc1cc(C(N)=O)cc2c(Br)c(C(F)(F)P(=O)(O)O)sc12` [Compound 270], for which the pIC50 in assay [1] was 7.67; in assay [2] it was 7.63.
Take `NC(=O)c1cc(OCC23CC(S(N)(=O)=O)(C2)C3)c2sc(C(F)(F)P(=O)(O)O)c(Br)c2c1` [Compound 403]: the results for the pIC50 in assay [1] and in assay [2] were 8.40 and 8.34, respectively.
For the compound `CNC(=O)c1cc(OCCCS(N)(=O)=O)c2sc(C(F)(F)P(=O)(O)O)c(Br)c2c1` [Compound 320], the pIC50 is 8.17 in assay [1] and 8.12 in assay [2].
For `NC(=O)c1cc(OCCCS(N)(=O)=O)c2sc(C(F)(F)P(=O)(O)O)c(C(F)(F)F)c2c1` [Compound 446], the values for the pIC50 in assay [1] and in assay [2] were 7.83 and 7.74, respectively.
As for `NC(=O)c1cc(OCc2cccc3ccccc23)c2sc(C(F)(F)P(=O)(O)O)c(Br)c2c1` [Compound 385], the figures for the pIC50 in assay [1] and in assay [2] were 6.91 and 6.78, respectively.
With `CS(=O)(=O)N1CCC(NC(=O)c2ccc3sc(C(F)(F)P(=O)(O)O)c(Br)c3c2)CC1` [Compound 44], the figures for the pIC50 in assay [1] and in assay [2] were 5.51 and 5.61, respectively.
In the same order, the values of `CC(C)OCCNC(=O)c1ccc2sc(C(F)(F)P(=O)(O)O)c(Br)c2c1` [Compound 60] are 5.60 and 5.24.
Take `CNC(=O)c1cc(OCCCS(N)(=O)=O)c2sc(C(F)(F)P(=O)(O)O)c(C)c2c1` [Compound 433]: the results for the pIC50 in assay [1] and in assay [2] were 7.48 and 7.53, respectively.
The corresponding values for `Cc1cc(CNC(=O)c2ccc3sc(C(F)(F)P(=O)(O)O)c(Br)c3c2)no1` [Compound 190] are 5.74 and 5.99.
For `NC(=O)c1cc(OC[C@H]2C[C@@H](S(N)(=O)=O)C2)c2sc(C(F)(F)P(=O)(O)O)c(Br)c2c1` [Compound 382], the figures for the pIC50 in assay [1] and in assay [2] were 7.49 and 7.56, respectively.
Regarding `NC(=O)c1cc(OCc2ccc(F)cc2OC(F)F)c2sc(C(F)(F)P(=O)(O)O)c(Br)c2c1` [Compound 342], the pIC50 in assay [1] was 7.12; in assay [2], 6.88.
Consider `Cc1c(C(F)(F)P(=O)(O)O)sc2c(OCCCC(C)(C)O)cc(C(N)=O)cc12` [Compound 437], for which the pIC50 in assay [1] was 6.96; in assay [2] it was 6.82.
For the compound `CS(=O)(=O)c1ccc(COc2cc(C(N)=O)cc3c(Br)c(C(F)(F)P(=O)(O)O)sc23)c(C#N)c1` [Compound 463, ((3-bromo-5-carbamoyl-7-((2-cyano-4-(methylsulfonyl)benzyl)oxy)benzo[b]thiophen-2-yl)difluoromethyl)phosphonic acid], the values for the pIC50 in assay [1] and in assay [2] were 8.17 and 7.83, respectively.
In the case of `Cc1noc(C)c1CCNC(=O)c1ccc2sc(C(F)(F)P(=O)(O)O)c(Br)c2c1` [Compound 43], the pIC50 in assay [1] is 5.19; in assay [2], 5.31.
For `O=C(N[C@H]1CCN(C(=O)C2CC2)C1)c1ccc2sc(C(F)(F)P(=O)(O)O)c(Br)c2c1` [Compound 116], the results for the pIC50 in assay [1] and in assay [2] were 5.97 and 6.01, respectively.
The corresponding values for `O=C(NCCn1ccc2ccccc21)c1ccc2sc(C(F)(F)P(=O)(O)O)c(Br)c2c1` [Compound 156] are 6.04 and 5.75.

One may read the pIC50 as the IC50 on a negative log10 scale, so that one unit is a factor of ten.
